What follows are compounds tested against T1, Recombinant human TLR7 (Homo sapiens, UniProt Q9NYK1) (assay: Human TLR7 assay (SEAP reporter in HEK293 cells)). Details: HEK293 cells expressing human TLR7 and pNiFty2-SEAP reporter; overnight incubation at 37° C., 0.1% (v/v) DMSO.
T1 construct: expressed in transfected cells; host or cells: HEK293 cell line stably expressing the pNiFty2-SEAP reporter plasmid; TLR7 in pUNO vector, blasticidin selection
T1 sequence (Q9NYK1 27-1049): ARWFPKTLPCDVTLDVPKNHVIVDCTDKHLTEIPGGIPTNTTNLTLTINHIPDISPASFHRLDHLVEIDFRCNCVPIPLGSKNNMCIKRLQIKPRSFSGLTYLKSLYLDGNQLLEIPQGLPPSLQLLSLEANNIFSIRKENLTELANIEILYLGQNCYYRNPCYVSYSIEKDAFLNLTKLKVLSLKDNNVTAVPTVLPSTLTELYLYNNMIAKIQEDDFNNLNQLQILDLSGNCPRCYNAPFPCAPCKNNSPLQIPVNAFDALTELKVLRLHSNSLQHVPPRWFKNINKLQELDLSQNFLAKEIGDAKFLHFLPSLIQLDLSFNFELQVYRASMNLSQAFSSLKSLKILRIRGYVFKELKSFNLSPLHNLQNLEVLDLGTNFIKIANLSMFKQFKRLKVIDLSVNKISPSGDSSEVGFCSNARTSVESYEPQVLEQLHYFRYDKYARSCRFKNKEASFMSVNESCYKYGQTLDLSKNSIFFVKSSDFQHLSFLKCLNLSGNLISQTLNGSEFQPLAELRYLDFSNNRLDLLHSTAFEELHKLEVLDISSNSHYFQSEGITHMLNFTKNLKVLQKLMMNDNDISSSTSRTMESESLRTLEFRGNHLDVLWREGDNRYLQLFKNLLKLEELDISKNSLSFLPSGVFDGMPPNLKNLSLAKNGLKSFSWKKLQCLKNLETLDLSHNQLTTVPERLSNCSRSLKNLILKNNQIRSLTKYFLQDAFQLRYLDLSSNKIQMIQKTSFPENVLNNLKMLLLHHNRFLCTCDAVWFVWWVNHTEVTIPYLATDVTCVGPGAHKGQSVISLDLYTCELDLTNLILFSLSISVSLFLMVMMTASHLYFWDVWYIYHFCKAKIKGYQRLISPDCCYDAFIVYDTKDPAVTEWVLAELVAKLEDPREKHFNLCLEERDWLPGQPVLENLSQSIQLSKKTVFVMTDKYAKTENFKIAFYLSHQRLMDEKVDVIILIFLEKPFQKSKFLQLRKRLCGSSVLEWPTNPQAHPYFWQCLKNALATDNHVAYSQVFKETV
Type: cell-based
Description: Recombinant human TLR7 was stably expressed in a HEK293 cell line already stably expressing the pNiFty2-SEAP reporter plasmid; integration of the reporter gene was maintained by selection with the antibiotic zeocin. The most common variant sequence of human TLR7 (represented by the EMBL sequence AF240467) was cloned into the mammalian cell expression vector pUNO and transfected into this reporter cell-line. Transfectants with stable expression were selected using the antibiotic blasticidin. In this reporter cell-line, expression of secreted alkaline phosphatase (SEAP) is controlled by an NFkB/ELAM-1 composite promoter comprising five NFkB sites combined with the proximal ELAM-1 promoter. TLR signaling leads to the translocation of NFkB and activation of the promoter results in expression of the SEAP gene. TLR7-specific activation was assessed by determining the level of SEAP produced following overnight incubation of the cells at 37° C. with the standard compound in the presence of 0.1% (v/v) dimethylsulfoxide (DMSO). Concentration dependent induction of SEAP production by compounds was expressed as the log of the minimal effective concentration of compound to induce SEAP release (pMEC).

Compound | pMEC (log of the minimal effective concentration of compound to induce SEAP release)
CCCCOc1nc(N)c2[nH]c(=O)n(CCCCN(Cc3cccc(CC(=O)OC)c3)C3CCN(C)CC3)c2n1 [Example 10, Methyl (3-{[[4-(6-amino-2-butoxy-8-oxo-7,8-dihydro-9H-purin-9-yl)butyl] (1-methylpiperidin-4-yl)amino]methyl}phenyl)acetate] | pMEC 8.4
CCCCOc1nc(N)c2[nH]c(=O)n(CCCN(Cc3cccc(CC(=O)OC)c3)C3CCN(CC#N)CC3)c2n1 [Example 14, Methyl [3-({[3-(6-amino-2-butoxy-8-oxo-7,8-dihydro-9H-purin-9-yl)propyl][1-(cyanomethyl)piperidin-4-yl]amino}methyl)phenyl]acetate] | pMEC 7.7
CCCCOc1nc(N)c2[nH]c(=O)n(CCCN(Cc3cccc(CC(=O)OC)c3)C3CCN(CCCC(=O)OC(C)(C)C)CC3)c2n1 [Example 17, tert-Butyl 4-(4-{[3-(6-amino-2-butoxy-8-oxo-7,8-dihydro-9H-purin-9-yl)propyl][3-(2-methoxy-2-oxoethyl)benzyl]amino}piperidin-1-yl)butanoate] | pMEC 9.1
